Ten molecules from patent publication US11739098B2 (BRISTOL-MYERS SQUIBB COMPANY, priority 2017, dated 2023) can be followed below.

What all share (type): cell-based
In test [1] the target is T1, human TLR8 (Homo sapiens, UniProt Q9NR97).
T1 construct: host or cells: HEK-Blue cells (HEK293-derived reporter line)
T1 sequence (Q9NR97 27-1041): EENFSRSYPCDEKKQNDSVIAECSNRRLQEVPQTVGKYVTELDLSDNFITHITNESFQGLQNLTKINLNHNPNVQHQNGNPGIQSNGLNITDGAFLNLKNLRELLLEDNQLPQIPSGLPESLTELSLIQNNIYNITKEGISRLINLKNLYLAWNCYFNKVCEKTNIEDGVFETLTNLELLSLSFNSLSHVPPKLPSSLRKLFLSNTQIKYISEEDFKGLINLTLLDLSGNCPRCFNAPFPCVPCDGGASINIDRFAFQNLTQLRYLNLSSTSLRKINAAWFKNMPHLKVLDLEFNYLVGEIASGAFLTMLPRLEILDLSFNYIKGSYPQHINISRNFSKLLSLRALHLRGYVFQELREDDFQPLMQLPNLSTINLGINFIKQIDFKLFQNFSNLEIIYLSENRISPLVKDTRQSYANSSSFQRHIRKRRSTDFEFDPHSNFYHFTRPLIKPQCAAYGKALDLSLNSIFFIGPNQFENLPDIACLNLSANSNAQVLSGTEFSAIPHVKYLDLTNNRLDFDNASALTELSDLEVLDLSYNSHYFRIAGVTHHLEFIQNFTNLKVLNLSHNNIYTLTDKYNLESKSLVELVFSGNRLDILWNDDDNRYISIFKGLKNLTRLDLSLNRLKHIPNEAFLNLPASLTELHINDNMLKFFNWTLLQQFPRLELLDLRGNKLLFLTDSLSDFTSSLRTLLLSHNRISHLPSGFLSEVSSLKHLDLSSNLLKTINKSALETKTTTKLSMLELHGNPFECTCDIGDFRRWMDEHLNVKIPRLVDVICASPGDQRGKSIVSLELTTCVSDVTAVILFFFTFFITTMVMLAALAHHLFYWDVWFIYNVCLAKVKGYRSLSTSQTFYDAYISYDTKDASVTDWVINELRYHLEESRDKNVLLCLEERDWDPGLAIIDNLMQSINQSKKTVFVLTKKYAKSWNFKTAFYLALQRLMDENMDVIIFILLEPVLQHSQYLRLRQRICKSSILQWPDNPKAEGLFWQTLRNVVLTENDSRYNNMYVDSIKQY
Nature of the test: TLR8 inhibition reporter assay (HEK-Blue cells, SEAP reporter, R848 stimulation). Conditions: HEK-Blue cells overexpressing human TLR8, SEAP reporter, R848 15.9 μM. The method, boiled down: (§1)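 Agonists (final): TLR7 gardiquimod 7.5 μM; TLR8 R848 15.9 μM; TLR9 ODN2006 5 nM. HEK-Blue reporter cells, 30 min RT compound pre-incubation, 0.05 nM–50 μM dose range, 22 h at 37 °C, colorimetric SEAP detection medium. % inhibition relative to agonist+DMSO and known-inhibitor wells.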

The target in test [2] is T2, human TLR9 (Homo sapiens, UniProt Q9NR96).
T2 construct: host or cells: HEK-Blue cells (HEK293-derived reporter line)
T2 sequence (Q9NR96 26-1032): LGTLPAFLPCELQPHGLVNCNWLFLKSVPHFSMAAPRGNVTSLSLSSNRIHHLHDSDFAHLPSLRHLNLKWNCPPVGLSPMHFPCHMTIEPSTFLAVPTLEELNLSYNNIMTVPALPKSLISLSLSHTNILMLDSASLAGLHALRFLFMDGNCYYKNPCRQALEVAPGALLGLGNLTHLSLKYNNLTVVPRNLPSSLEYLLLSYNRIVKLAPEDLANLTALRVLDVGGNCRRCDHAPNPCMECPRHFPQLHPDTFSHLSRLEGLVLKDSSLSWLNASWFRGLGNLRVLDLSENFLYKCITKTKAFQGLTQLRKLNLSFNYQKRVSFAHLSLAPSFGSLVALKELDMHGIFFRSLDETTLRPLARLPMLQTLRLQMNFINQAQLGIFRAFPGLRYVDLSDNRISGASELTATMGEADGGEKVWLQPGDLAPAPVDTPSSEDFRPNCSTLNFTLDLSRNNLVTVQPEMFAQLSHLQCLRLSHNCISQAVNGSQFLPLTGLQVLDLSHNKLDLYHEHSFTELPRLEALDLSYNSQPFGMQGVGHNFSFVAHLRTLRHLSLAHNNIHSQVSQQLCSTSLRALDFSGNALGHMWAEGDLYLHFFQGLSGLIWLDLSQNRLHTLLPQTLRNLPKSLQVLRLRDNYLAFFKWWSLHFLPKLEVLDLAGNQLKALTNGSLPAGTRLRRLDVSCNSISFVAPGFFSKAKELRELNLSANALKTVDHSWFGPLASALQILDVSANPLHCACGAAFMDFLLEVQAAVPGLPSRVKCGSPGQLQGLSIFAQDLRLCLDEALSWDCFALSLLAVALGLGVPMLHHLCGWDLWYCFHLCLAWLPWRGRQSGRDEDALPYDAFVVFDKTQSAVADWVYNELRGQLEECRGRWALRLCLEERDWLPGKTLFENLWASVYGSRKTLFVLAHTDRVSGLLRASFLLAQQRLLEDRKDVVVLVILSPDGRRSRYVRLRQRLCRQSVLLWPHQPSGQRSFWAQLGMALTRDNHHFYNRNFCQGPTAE
Put plainly: TLR9 inhibition reporter assay (HEK-Blue cells, SEAP reporter, ODN2006 stimulation). Conditions: HEK-Blue cells overexpressing human TLR9, SEAP reporter, ODN2006 5 nM. The procedure, abridged:
as §1
(In general: Reporter assays use an easily measured gene product as a stand-in for the process of interest.)

Test [3] concerns the target T3, human TLR7 (Homo sapiens, UniProt Q9NYK1).
T3 construct: host or cells: HEK-Blue cells (HEK293-derived reporter line)
T3 sequence (Q9NYK1 27-1049): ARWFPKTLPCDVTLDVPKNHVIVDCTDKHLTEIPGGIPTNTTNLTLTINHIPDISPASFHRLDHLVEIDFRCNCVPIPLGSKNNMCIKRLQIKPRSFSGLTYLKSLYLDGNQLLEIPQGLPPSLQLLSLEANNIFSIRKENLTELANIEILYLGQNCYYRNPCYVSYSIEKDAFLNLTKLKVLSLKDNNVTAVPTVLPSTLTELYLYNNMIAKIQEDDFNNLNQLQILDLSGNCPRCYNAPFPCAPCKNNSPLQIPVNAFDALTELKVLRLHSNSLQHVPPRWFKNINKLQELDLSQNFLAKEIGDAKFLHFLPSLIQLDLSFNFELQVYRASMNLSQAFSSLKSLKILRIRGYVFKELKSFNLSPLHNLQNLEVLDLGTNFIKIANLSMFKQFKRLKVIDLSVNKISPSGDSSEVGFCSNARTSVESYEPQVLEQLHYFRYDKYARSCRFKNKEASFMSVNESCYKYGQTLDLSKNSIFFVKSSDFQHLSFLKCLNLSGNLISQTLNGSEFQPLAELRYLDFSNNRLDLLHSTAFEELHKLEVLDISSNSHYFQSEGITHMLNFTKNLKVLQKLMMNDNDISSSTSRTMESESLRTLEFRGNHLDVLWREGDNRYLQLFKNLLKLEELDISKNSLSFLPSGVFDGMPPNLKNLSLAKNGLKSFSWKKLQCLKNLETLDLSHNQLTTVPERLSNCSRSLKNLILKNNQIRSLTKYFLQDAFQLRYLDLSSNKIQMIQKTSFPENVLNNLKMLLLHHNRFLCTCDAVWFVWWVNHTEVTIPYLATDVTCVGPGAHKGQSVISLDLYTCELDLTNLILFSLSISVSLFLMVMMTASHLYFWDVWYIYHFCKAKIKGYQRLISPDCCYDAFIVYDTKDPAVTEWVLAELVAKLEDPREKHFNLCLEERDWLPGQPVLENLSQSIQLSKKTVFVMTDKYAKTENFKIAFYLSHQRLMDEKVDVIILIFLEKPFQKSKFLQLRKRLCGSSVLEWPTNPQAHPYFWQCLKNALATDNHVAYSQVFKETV
Put plainly: TLR7 inhibition reporter assay (HEK-Blue cells, SEAP reporter, gardiquimod stimulation). Conditions: HEK-Blue cells overexpressing human TLR7, SEAP reporter, gardiquimod 7.5 μM. The method, boiled down: as §1

On to `Cc1cc2nnnn2cc1-c1[nH]c2ccc(C3CCN(CC(=O)N(C)C)CC3)cc2c1C(C)C` [Example 314, 2-(4-(3-isopropyl-2-(7-methyltetrazolo[1,5-a]pyridin-6-yl)-1H-indol-5-yl)piperidin-1-yl)-N,N-dimethylacetamide], for which the IC50 in test [1] is below 0.1 µM; in test [2] it was 1 to 50 µM; in test [3], below 0.1 µM.

On to `Cc1cc2nnnn2cc1-c1[nH]c2ccc(C3CCN(CC(N)=O)CC3)cc2c1C(C)C` [Example 315, 2-(4-(3-isopropyl-2-(7-methyltetrazolo[1,5-a]pyridin-6-yl)-1H-indol-5-yl)piperidin-1-yl)acetamide], for which the half-inhibitory concentration (IC50) in test [1] was below 0.1 µM; in test [2], 1 to 50 µM; in test [3], below 0.1 µM.

In the case of `CNC(=O)CN1CCC(c2ccc3[nH]c(-c4cn5nnnc5cc4C)c(C(C)C)c3c2)CC1` [Example 316, 2-(4-(3-isopropyl-2-(7-methyltetrazolo[1,5-a]pyridin-6-yl)-1H-indol-5-yl)piperidin-1-yl)-N-methylacetamide], the figures for the IC50 in test [1], in test [2] and in test [3] were 0.1 to 1 µM, 1 to 50 µM and below 0.1 µM, respectively.

As to `Cc1nnn2ccc(-c3[nH]c4ccc(C5CCN(CC(N)=O)CC5)cc4c3C(C)C)cc12` [Example 317, 2-(4-(3-isopropyl-2-(3-methyl-[1,2,3]triazolo[1,5-a]pyridin-5-yl)-1H-indol-5-yl)piperidin-1-yl)acetamide], the 50% inhibitory concentration (IC50) in test [1] is below 0.1 µM; in test [2] it was 1 to 50 µM; in test [3], below 0.1 µM.

For the molecule `Cc1nnn2ccc(-c3[nH]c4ccc(C5CCN(CC(=O)N(C)C)CC5)cc4c3C(C)C)cc12` [Example 318, 2-(4-(3-isopropyl-2-(3-methyl-[1,2,3]triazolo[1,5-a]pyridin-5-yl)-1H-indol-5-yl)piperidin-1-yl)-N,N-dimethylacetamide], the IC50 is below 0.1 µM in test [1], 1 to 50 µM in test [2] and below 0.1 µM in test [3].

`CNC(=O)CN1CCC(c2ccc3[nH]c(-c4ccn5nnc(C)c5c4)c(C(C)C)c3c2)CC1` [Example 319, 2-(4-(3-isopropyl-2-(3-methyl-[1,2,3]triazolo[1,5-a]pyridin-5-yl)-1H-indol-5-yl)piperidin-1-yl)-N-methylacetamide]: the figures for the IC50 in test [1], in test [2] and in test [3] were below 0.1 µM, 1 to 50 µM and below 0.1 µM, respectively.

As for `CNC(=O)CN1CCC(c2ccc3[nH]c(-c4cc(C)n5nncc5c4)c(C(C)C)c3c2)CC1` [Example 320, 2-(4-(3-isopropyl-2-(7-methyl-[1,2,3]triazolo[1,5-a]pyridin-5-yl)-1H-indol-5-yl)piperidin-1-yl)-N-methylacetamide], the figures for the IC50 in test [1], in test [2] and in test [3] were below 0.1 µM, 1 to 50 µM and below 0.1 µM, respectively.

`Cc1cc(-c2[nH]c3ccc(C4CCN(CC(N)=O)CC4)cc3c2C(C)C)cc2cnnn12` [Example 321, 2-(4-(3-isopropyl-2-(7-methyl-[1,2,3]triazolo[1,5-a]pyridin-5-yl)-1H-indol-5-yl)piperidin-1-yl)acetamide]: the half-inhibitory concentration (IC50) in test [1] was below 0.1 µM; in test [2], 1 to 50 µM; in test [3] it was below 0.1 µM.

`CNC(=O)CN1CCC(c2ccc3[nH]c(-c4ccn5nc(C)cc5c4)c(C(C)C)c3c2)CC1` [Example 322, 2-(4-(3-isopropyl-2-(2-methylpyrazolo[1,5-a]pyridin-5-yl)-1H-indol-5-yl)piperidin-1-yl)-N-methylacetamide]: the figures for the IC50 in test [1], in test [2] and in test [3] were 1 to 50 µM, 1 to 50 µM and 0.1 to 1 µM, respectively.

Consider `Cc1cc2cc(-c3[nH]c4ccc(C5CCN(CC(=O)N(C)C)CC5)cc4c3C(C)C)ccn2n1` [Example 323, 2-(4-(3-isopropyl-2-(2-methylpyrazolo[1,5-a]pyridin-5-yl)-1H-indol-5-yl)piperidin-1-yl)-N,N-dimethylacetamide], for which the 50% inhibitory concentration (IC50) in test [1] lay in the range of 1 to 50 µM; in test [2] it was 1 to 50 µM; in test [3], 0.1 to 1 µM.

The term IC50 denotes the midpoint of a concentration-inhibition curve. Read a high IC50 as weaker potency.
